{"source": "patent US20180044422A1", "about": "“TREATING SOLID TUMOR BY TARGETING DECTIN-1 SIGNALING” (New York University, priority 2016, published 2018)", "key": {"[1]": {"tested_on": "pancreatic oncogenesis in KC mice", "assay": "KC mice endogenous pancreatic tumor model", "type": "in vivo, mouse", "settings": "Dectin-1-/- mice, 20 mg/kg i.p. five times weekly, 8 weeks, vs vehicle", "text": "C57BL/6 (H-2Kb) mice were purchased from Jackson Labs (Bar Harbor, Me.) and bred in-house. KC and KPC mice develop pancreatic neoplasia endogenously by expressing mutant Kras alone or mutant Kras and p53, respectively, in the progenitor cells of the pancreas (Hingorani et al., Cancer Cell, 2003, 4, 437-450; Hingorani et al., Cancer Cell, 2005, 7, 469-483). Tumor progression and survival in control KC mice has been previously detailed (Daley et al., Cell, 2016, 166, 1485-1499). Dectin-1^−/− mice were crossed with KC mice to generate KC; Dectin-1^−/− animals. For orthotopic pancreatic tumor challenge, mice were administered intra-pancreatic injections of either Kras^G12D PDEC or FC1242 tumor cells derived from KPC mice. Kras^G12D PDEC and FC1242 cells were generated as previously described (Pylayeva-Gupta et al., Cancer Cell, 2012, 21, 836-847; Zambirinis et al., J Exp Med., 2015, 212, 2077-2094). […] Mice were sacrificed 3 weeks later and tumor weight recorded. […] PDEC proliferation was measured using the XTT assay according to the manufacturer's protocol (Roche, Nutley, N.J.). […]\nFor histological analysis, pancreatic specimens were fixed with 10% buffered formalin, dehydrated in ethanol, embedded with paraffin, and stained with H&E or Gomori's Trichrome. The fraction of preserved acinar area was calculated as previously described (Seifert et al., Nature, 2016, 532, 245-249). […]"}, "[2]": {"tested_on": "Dectin-1/Galectin-9 interaction", "assay": "Galectin-9 immunoprecipitation with PNGase F or lactose treatment", "type": "binding", "settings": "PNGase F pretreatment of Dectin-1 or 100 mM lactose pre-incubation of Galectin-9; SDS-PAGE", "method": "Dectin-1 IgG Fc (8 μg; InvivoGen) was treated with PNGase F (20 μl, ˜10,000 units; New England Biolabs) following the company's non-denaturing protocol (37° C., 24 hr). PNGase F treated and untreated Dectin-1 IgG Fc samples (4 μg; InvivoGen) were added to protein G beads (25 μl, Dynabeads Protein G; novex) and the mixtures were incubated at room temperature for 10 min. The beads were washed 2× with PBS-T (pH 7.4 with 0.02% tween). Recombinant mouse Galectin-9 (4 μg; R&D Systems) was resuspended in PBS-T or a solution of 100 mM lactose in PBS-T. Galectin-9 samples were then incubated with the Dynabead/Dectin-1 IgG Fc complex for 20 min at room temperature. The Dynabeads were then washed 3× with PBS-T and transferred to a clean tube. Galectin-9 and Dectin-1 IgG Fc were eluted in SDS-PAGE buffer (PBS with 10% BME) by heating at 98° C. for 10 min. The samples were then analyzed by SDS-PAGE and stained with Coomassie Blue."}, "[3]": {"tested_on": "bone-marrow derived macrophages (BMDM)", "assay": "Dectin-1 expression in bone-marrow derived macrophages", "type": "cell-based, mouse", "settings": "cytokine added to day 8 BMDM cultures for 24h"}}}
{"molecule": "Oc1cc(O)cc(/C=C/c2ccc(O)c(O)c2)c1", "note": "[Piceatannol]", "values": [{"measurement": "pancreatic tumor weight", "setting": "[1]", "value": "no effect"}]}
{"molecule": "OC[C@H]1O[C@@H](O[C@H]2[C@H](O)[C@@H](O)C(O)O[C@@H]2CO)[C@H](O)[C@@H](O)[C@H]1O", "note": "(stereo partly shown) [lactose]", "values": [{"measurement": "effect on Dectin-1/Galectin-9 binding", "setting": "[2]", "value": "no alteration of the Dectin-1/Galectin-9 interaction"}]}
{"molecule": "TGF-3: cytokine added to BMDM cultures; printed TGF-β in methods", "values": [{"measurement": "Dectin-1 expression in BMDM", "setting": "[3]", "value": "did not influence Dectin-1 expression"}]}
{"molecule": "TNF-α", "values": [{"measurement": "Dectin-1 expression in BMDM", "setting": "[3]", "value": "did not influence Dectin-1 expression"}]}
